Experimental data as given in ChEMBL document CHEMBL1201862, “PubChem BioAssay data set” (2004).
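Exposure lasted 48 hours, with cells grown in 96-well plates and compounds tested at five concentrations. The concentration for 50% growth inhibition is given as GI50.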 Calls of active or inactive are those of the source. Rule as the data show it: active = GI50 up to about 1.1 µM and inactive = higher.

Key:
Experiment in all cases: NCI tumour cell line growth inhibition, 48 h
[1] = tested on: NCI/ADR-RES
[2] = tested on: DU-145
[3] = tested on: U-251
[4] = tested on: NCI-H460
[5] = tested on: LOX IMVI
[6] = tested on: UACC-257
[7] = tested on: BT-549
[8] = tested on: MOLT-4
[9] = tested on: SN12C
[10] = tested on: CAKI-1
[11] = tested on: KM12
[12] = tested on: TK-10
[13] = tested on: HT-29
[14] = tested on: OVCAR-3
[15] = tested on: NCI-H226
[16] = tested on: OVCAR-5
[17] = tested on: PC-3
[18] = tested on: HCT-15
[19] = tested on: MDA-N
[20] = tested on: 786-0
[21] = tested on: A549
[22] = tested on: NCI-H23
[23] = tested on: OVCAR-8
[24] = tested on: MDA-MB-435
[25] = tested on: K562
[26] = tested on: Malme-3M
[27] = tested on: HCC 2998
[28] = tested on: SR
[29] = tested on: Hs-578T
[30] = tested on: UO-31
[31] = tested on: RXF 393
[32] = tested on: SW-620
[33] = tested on: SF-539
[34] = tested on: SF-268
[35] = tested on: IGROV-1
[36] = tested on: A498
[37] = tested on: SNB-19
[38] = tested on: EKVX
[39] = tested on: COLO 205
[40] = tested on: RPMI-8226
[41] = tested on: MCF7
[42] = tested on: ACHN
[43] = tested on: SF-295
[44] = tested on: MDA-MB-231
[45] = tested on: HL-60
[46] = tested on: HCT-116
[47] = tested on: SK-MEL-28
[48] = tested on: CCRF-CEM
[49] = tested on: HOP-62
[50] = tested on: SK-MEL-5
[51] = tested on: NCI-H522
[52] = tested on: OVCAR-4
[53] = tested on: SK-MEL-2
[54] = tested on: SK-OV-3
[55] = tested on: UACC-62
[56] = tested on: M14
[57] = tested on: SNB-75
[58] = tested on: HOP-92
[59] = tested on: T47D

Measured: GI50

NC(Cc1ccc(OCc2ccccc2)cn1)C(=O)O (stereo not given)
> 100 µM: [18]
inactive: [1] > 100 µM | [2] > 100 µM | [3] > 100 µM | [4] > 100 µM | [5] > 100 µM | [6] > 100 µM | [7] > 100 µM | [8] > 100 µM | [9] > 100 µM | [10] > 100 µM | [11] > 100 µM | [12] > 100 µM | [13] > 100 µM | [14] > 100 µM | [15] > 100 µM | [16] > 100 µM | [17] > 100 µM | [19] > 100 µM | [20] > 100 µM | [21] > 100 µM | [22] > 100 µM | [23] > 100 µM | [24] > 100 µM | [25] > 100 µM | [26] > 100 µM | [27] > 100 µM | [28] > 100 µM | [29] > 100 µM | [30] > 100 µM | [31] > 100 µM | [32] > 100 µM | [33] > 100 µM | [34] > 100 µM | [35] > 100 µM | [36] > 100 µM | [37] > 100 µM | [38] > 100 µM | [39] > 100 µM | [40] > 100 µM | [41] > 100 µM | [42] > 100 µM | [43] > 100 µM | [44] > 100 µM | [45] > 100 µM | [46] > 100 µM | [47] > 100 µM | [48] > 100 µM | [49] > 100 µM | [50] > 100 µM | [51] > 100 µM

CC12CCC(C/C1=N\NC(N)=O)C2(C)C (stereo not given)
inactive: [1] > 100 µM | [2] > 100 µM | [3] > 100 µM | [4] > 100 µM | [5] > 100 µM | [52] > 100 µM | [6] > 100 µM | [53] > 100 µM | [7] > 100 µM | [8] > 100 µM | [54] > 100 µM | [9] > 100 µM | [10] > 100 µM | [11] > 100 µM | [12] > 100 µM | [13] > 100 µM | [14] > 100 µM | [55] > 100 µM | [15] > 100 µM | [16] > 100 µM | [17] > 100 µM | [19] > 100 µM | [20] > 100 µM | [21] > 100 µM | [22] > 100 µM | [23] > 100 µM | [24] > 100 µM | [56] > 100 µM | [25] > 100 µM | [26] > 100 µM | [28] > 100 µM | [29] > 100 µM | [30] > 100 µM | [32] > 100 µM | [57] > 100 µM | [34] > 100 µM | [35] > 100 µM | [37] > 100 µM | [38] > 100 µM | [39] > 100 µM | [58] > 100 µM | [40] > 100 µM | [41] > 100 µM | [42] > 100 µM | [43] > 100 µM | [45] > 100 µM | [46] > 100 µM | [47] > 100 µM | [59] > 100 µM | [48] > 100 µM | [49] > 100 µM | [50] > 100 µM | [51] > 100 µM
> 100 µM: [18]
